Measurements: ChEMBL document CHEMBL2157938, “Use of structure based design to increase selectivity of pyridyl-cinnoline phosphodiesterase 10A (PDE10A) inhibitors against phosphodiesterase 3 (PDE3)” (Bioorg Med Chem Lett, 2012)

Experiments:
[1] = Inhibition of mouse PDE10A7 using fluorescein labeled CAMP as substrate incubated for 30 mins prior to substrate addition measured after 30 mins by fluorescence polarization assay
[2] = Clearance in rat liver microsomes; type: ADME, Microsome; conditions: read-out: CLH
[3] = Selectivity ratio of IC50 for PDE3 to IC50 for mouse PDE10A7
[4] = Inhibition of PDE3
[5] = Oral bioavailability in rat at 5 mg/kg; type: ADME, organism-based; conditions: in vivo
[6] = Half life in rat at 1 mg/kg, iv and 5 mg/kg, po; type: ADME, organism-based; conditions: in vivo
[7] = Clearance in rat at 1 mg/kg, iv and 5 mg/kg, po; type: ADME, organism-based; conditions: in vivo

| SMILES | IC50 [1] [nM] | microsomal CLint [2] [µL/min/mg] | Ratio IC50 [3] | IC50 [4] [nM] | bioavailability [5] [%] | half-life [6] [h] | clearance [7] [mL/min/kg] |
| --- | --- | --- | --- | --- | --- | --- | --- |
| COc1cc2nccc(-c3cnc(N4CCC(C(C)(C)O)CC4)c(C)c3)c2cc1OC | 11.9 | 57 |  |  |  |  |  |
| COc1cc2c(-c3cnc(N4CCC(C(C)(C)O)CC4)c(C)c3)cnnc2cc1OCC1CC1 | 19.1 |  | > 523 | > 10000 |  |  |  |
| COc1cc2nncc(-c3cnc(N4CCC(C(C)(C)O)CC4)c(C)c3)c2cc1C | 25.6 |  | 980 | 25100 |  |  |  |
| COc1cc2nncc(-c3cnc(N4CCC(C(C)(C)O)CC4)c(C)c3)c2cc1OC |  |  | 347 | 1700 | 60 | 1.54 |  |
| COc1cc2nncc(-c3cnc(N4CCC(C(C)(C)O)CC4)c(C)c3)c2cc1OC1CC1 | 4.1 |  | 4360 | 17900 | 32 | 1.48 | 15.5 |
| COc1cc2c(-c3cnc(N4CCC(C(C)(C)O)CC4)c(C)c3)cnnc2cc1OC(F)F | 68.6 |  | 231 | 15900 |  |  |  |
| CCOc1cc2c(-c3cnc(N4CCC(C(C)(C)O)CC4)c(C)c3)cnnc2cc1C | 40.9 |  | > 244 | > 10000 |  |  |  |
| COc1cc2snc(-c3ccc(NC(C)C)nc3)c2cc1OC | 1090 |  |  |  |  |  |  |
| COc1cc2nncc(-c3cnc(N4CCC(C(C)(C)O)CC4)c(Cl)c3)c2cc1OC | 6.3 |  | 357 | 2250 |  |  |  |
| CCn1cc(-c2cnc(N3CCC(C(C)(C)O)CC3)c(C)c2)c2cc(OC)c(OC)cc2c1=O | 13.8 | 50 |  |  |  |  |  |
| COc1cc2nncc(-c3cnc(N4CCC(C(C)(C)O)CC4)c(C)c3)c2cc1N(C)C | 4500 |  |  | > 10000 |  |  |  |
| COc1cc2cncc(-c3cnc(N4CCC(C(C)(C)O)CC4)c(C)c3)c2cc1OC | 13.4 | 69 |  |  |  |  |  |
| COc1cc2ccnc(-c3ccc(NC(C)C)nc3)c2cc1OC | 47 |  |  |  |  |  |  |
| COc1cc2nncc(-c3ccc(NC(C)C)nc3)c2cc1OC | 7.6 |  |  |  |  |  |  |
| COc1cc2c(-c3cnc(N4CCC(C(C)(C)O)CC4)c(C)c3)cnnc2cc1F | 132 |  | > 75 | > 10000 |  |  |  |
| COc1cc2nncc(-c3cnc(N4CCC(C(C)(C)O)CC4)c(C4CC4)c3)c2cc1OC | 1.3 |  | 2290 | 2980 |  |  |  |
| COc1cc2nncc(-c3cnc(N4CCC(C(C)(C)O)CC4)c(C(F)F)c3)c2cc1OC | 1.2 |  | 5520 | 6630 | 46 | 2.08 |  |
